# Measurements as given in patent publication US7790733B2, “8-alkoxy or cycloalkoxy-4-methyl-3,4-dihydro-quinazolin-2-ylamines” (Hoffman-La Roche Inc., priority 2005, dated 2010).
# Target: T1, recombinant human 5-HT5A receptor (Homo sapiens, UniProt P47898)
# T1 construct: expressed in transfected cells; host or cells: Human Embryonic Kidney-EBNA (HEK-EBNA) cells, transient cDNA expression, membranes
# Assay: [3H]LSD radioligand binding assay, recombinant human 5-HT5A receptor in HEK-EBNA cell membranes
# Conditions: [3H]LSD approx. 1 nM; membranes from HEK-EBNA cells transiently expressing 5-HT5A; Ki from IC50 by Cheng-Prussoff equation
# Method: A [^3H]LSD radioligand binding assay was used to determine the affinity of the compounds for the recombinant human 5-HT5A receptor, in membranes from transiently (cDNA) expressed 5-HT5A receptors in Human Embryonic Kidney-EBNA (HEK-EBNA) cells. Assay buffer consisted of Tris (50 mM) buffer containing 1 mM EGTA, 10 mM MgCl2 (pH 7.4) and 10 μM pargyline. The binding assay was carried out in 96-well-plates in the presence of [^3H]LSD (approximately 1 nM), approximately 2 μg/well of membrane protein, and 0.5 mg of Ysi-poly-1-lysine SPA beads in a final volume of 200 μl of buffer. Non-specific binding was defined using methiothepin 2 μM. Compounds were tested at 10 concentrations. All assays were conducted in duplicate and repeated at least two times. Assay plates were incubated for 120 min at room temperature before centrifugation. Bound ligand was determined using a Packard Topcount scintillation counter. IC50 values were calculated using a non-linear curve fitting program and Ki values calculated using the Cheng-Prussoff equation. The activity of representative compounds (≦0.05 μM) is described in the table below: […]
# T1 sequence (P47898 whole entry): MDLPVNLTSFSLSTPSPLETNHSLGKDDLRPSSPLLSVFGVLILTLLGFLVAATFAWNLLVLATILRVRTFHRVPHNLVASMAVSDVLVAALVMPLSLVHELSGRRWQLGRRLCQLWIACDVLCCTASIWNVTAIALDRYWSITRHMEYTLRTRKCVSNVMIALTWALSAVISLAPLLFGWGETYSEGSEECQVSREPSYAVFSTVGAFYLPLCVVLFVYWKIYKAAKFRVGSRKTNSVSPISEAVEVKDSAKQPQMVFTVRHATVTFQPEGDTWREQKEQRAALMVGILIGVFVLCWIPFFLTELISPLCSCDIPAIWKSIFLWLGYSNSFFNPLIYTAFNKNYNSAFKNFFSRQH
row,Ki,SMILES
1,16.2 nM,"CNC1=Nc2c(OC3CCCC3)cccc2C(C)N1 (centres unmarked) [Example 16, (8-Cyclopentyloxy-4-methyl-3,4-dihydro-quinazolin-2-yl)-methyl-amine]"
2,34.5 nM,"CCOc1cccc2c1N=C(NC)NC2C (centres unmarked) [Example 7, (8-Ethoxy-4-methyl-3,4-dihydro-quinazolin-2-yl)-methyl-amine]"
3,38.4 nM,"CNC1=Nc2c(OC)cccc2C(C)N1 (centres unmarked) [Example 9, (8-Methoxy-4-methyl-3,4-dihydro-quinazolin-2-yl)-methyl-amine]"
4,42.6 nM,"CNC1=Nc2c(OC)cc(Cl)c(C)c2C(C)N1 (centres unmarked) [Example 20, (6-Chloro-8-methoxy-4,5-dimethyl-3,4-dihydro-quinazolin-2-yl)-methyl-amine]"
5,25.4 nM,"CNC1=Nc2c(OC(C)C)cccc2C(C)N1 (centres unmarked) [Example 5, (8-Isopropoxy-4-methyl-3,4-dihydro-quinazolin-2-yl)-methyl-amine]"
6,14.1 nM,"CCOc1cccc2c1N=C(NCC(F)F)NC2C (centres unmarked) [Example 3, (2,2-Difluoro-ethyl)-(8-ethoxy-4-methyl-3,4-dihydro-quinazolin-2-yl)-amine]"
7,22.4 nM,"CC1NC(NCC(F)F)=Nc2c(OC3CCCC3)cccc21 (centres unmarked) [Example 17, (8-Cyclopentyloxy-4-methyl-3,4-dihydro-quinazolin-2-yl)-(2,2-difluoro-ethyl)-amine]"
8,6.34 nM,"COc1cccc2c1N=C(N)NC2C (centres unmarked) [Example 1, 8-Methoxy-4-methyl-3,4-dihydro-quinazolin-2-ylamine]"
9,47.5 nM,"COc1cc(Cl)c(C)c2c1N=C(NC1CCC1)NC2C (centres unmarked) [Example 19, (6-Chloro-8-methoxy-4,5-dimethyl-3,4-dihydro-quinazolin-2-yl)-cyclobutyl-amine]"
10,4.7 nM,"COc1cc(Cl)c(C)c2c1N=C(N)NC2C (centres unmarked) [Example 18, 6-Chloro-8-methoxy-4,5-dimethyl-3,4-dihydro-quinazolin-2-ylamine]"
11,23.2 nM,"CC(C)Oc1cccc2c1N=C(NCC(F)F)NC2C (centres unmarked) [Example 4, (2,2-Difluoro-ethyl)-(8-isopropoxy-4-methyl-3,4-dihydro-quinazolin-2-yl)-amine]"
12,37.2 nM,"CCOc1cccc2c1N=C(N)NC2C (centres unmarked) [Example 8, 8-Ethoxy-4-methyl-3,4-dihydro-quinazolin-2-ylamine]"
13,28.2 nM,"COc1cccc2c1N=C(NCC(F)F)NC2C (centres unmarked) [Example 6, (2,2-Difluoro-ethyl)-(8-methoxy-4-methyl-3,4-dihydro-quinazolin-2-yl)-amine]"
14,9.96 nM,"CC(C)Oc1cccc2c1N=C(N)NC2C (centres unmarked) [Example 2, 8-Isopropoxy-4-methyl-3,4-dihydro-quinazolin-2-ylamine]"
